Key:
[1] = (§1) Drug metabolism in rat liver microsomes assessed as (1S,5R,6S,7R)-7-[5-Chloro-2-((S)-1-methoxy-7-morpholin-4-yl-6,7,8,9-tetrahydro-5H-benzocyclohepten-2-ylamino)-pyrimidin-4-ylamino]-3-oxa-tricyclo[3.2.1.0(2,4)]octane-6-carboxylic acid amide formation at 10 uM after 120 mins in presence of NADPH by LC/MS/MS analysis; format: ADME; conditions: 2 h
[2] = Drug metabolism in rat liver microsomes assessed as oxidative/degradative M5 metabolite formation at 10 uM after 120 mins in presence of NADPH by LC/MS/MS analysis; format: ADME; conditions: 2 h
[3] = Drug metabolism in human liver microsomes assessed as oxidative/degradative M5 metabolite formation at 10 uM after 120 mins in presence of NADPH by LC/MS/MS analysis; format: ADME; conditions: 2 h
[4] = Half life in human liver microsomes by LC/MS/MS analysis; format: ADME
[5] = target: Cytochrome P450 2D6 (Homo sapiens, UniProt P10635); assay: Inhibition of CYP2D6 in human liver microsomes using dextromethorphan as substrate in presence of NADPH by LC/MS/MS analysis; format: ADME
Sequence of Cytochrome P450 2D6 (P10635 whole entry): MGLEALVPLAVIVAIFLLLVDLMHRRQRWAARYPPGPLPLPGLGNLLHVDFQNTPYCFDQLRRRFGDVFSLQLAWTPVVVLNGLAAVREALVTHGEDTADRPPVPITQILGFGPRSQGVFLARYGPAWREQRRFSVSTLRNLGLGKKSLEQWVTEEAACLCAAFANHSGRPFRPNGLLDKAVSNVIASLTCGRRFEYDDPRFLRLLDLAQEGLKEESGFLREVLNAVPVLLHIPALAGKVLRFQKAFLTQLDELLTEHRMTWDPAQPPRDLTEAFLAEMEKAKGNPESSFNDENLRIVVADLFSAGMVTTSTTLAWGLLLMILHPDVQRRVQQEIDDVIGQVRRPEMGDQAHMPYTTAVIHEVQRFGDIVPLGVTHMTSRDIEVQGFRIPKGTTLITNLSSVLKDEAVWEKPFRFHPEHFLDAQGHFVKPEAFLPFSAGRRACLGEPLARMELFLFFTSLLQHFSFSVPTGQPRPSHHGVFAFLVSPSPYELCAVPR

[6] = target: T1, Insulin receptor (Homo sapiens, UniProt P06213)
T1 sequence (P06213 28-758 limits assumed): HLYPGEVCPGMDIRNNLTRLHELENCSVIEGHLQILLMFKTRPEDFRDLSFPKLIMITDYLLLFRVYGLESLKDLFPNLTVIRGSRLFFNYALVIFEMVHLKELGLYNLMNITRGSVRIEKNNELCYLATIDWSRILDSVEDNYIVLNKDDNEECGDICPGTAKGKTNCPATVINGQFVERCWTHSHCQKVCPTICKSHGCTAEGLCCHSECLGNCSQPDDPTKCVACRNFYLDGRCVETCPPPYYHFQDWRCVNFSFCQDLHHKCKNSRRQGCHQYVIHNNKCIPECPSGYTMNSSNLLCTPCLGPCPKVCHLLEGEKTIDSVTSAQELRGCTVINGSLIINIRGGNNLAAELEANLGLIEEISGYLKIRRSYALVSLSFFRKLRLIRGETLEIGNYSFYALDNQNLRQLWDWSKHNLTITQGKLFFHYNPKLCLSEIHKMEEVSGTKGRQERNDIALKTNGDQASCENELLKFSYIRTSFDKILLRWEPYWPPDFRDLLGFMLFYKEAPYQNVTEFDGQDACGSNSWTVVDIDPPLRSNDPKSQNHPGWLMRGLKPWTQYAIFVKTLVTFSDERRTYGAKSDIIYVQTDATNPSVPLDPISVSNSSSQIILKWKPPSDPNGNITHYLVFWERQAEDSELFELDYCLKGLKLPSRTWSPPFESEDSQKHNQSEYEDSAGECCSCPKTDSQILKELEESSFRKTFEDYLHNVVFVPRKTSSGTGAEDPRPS
T1 sequence (P06213 763-1382 limits assumed): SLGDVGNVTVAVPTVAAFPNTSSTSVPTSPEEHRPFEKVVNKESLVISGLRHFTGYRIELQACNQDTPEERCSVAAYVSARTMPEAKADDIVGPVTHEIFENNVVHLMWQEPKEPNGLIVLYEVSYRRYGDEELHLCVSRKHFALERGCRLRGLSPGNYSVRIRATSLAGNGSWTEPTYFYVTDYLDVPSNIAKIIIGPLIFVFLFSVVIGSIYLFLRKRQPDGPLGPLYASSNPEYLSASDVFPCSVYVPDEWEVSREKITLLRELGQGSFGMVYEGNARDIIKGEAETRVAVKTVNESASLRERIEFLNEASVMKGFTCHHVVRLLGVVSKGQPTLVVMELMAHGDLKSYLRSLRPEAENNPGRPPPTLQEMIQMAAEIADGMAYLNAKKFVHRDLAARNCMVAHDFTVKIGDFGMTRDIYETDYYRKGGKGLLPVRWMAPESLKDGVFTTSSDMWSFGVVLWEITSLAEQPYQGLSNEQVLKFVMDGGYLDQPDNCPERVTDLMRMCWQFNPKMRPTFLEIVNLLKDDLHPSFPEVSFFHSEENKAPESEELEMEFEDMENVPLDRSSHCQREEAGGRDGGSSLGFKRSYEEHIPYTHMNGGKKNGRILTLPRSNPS
Description: Inhibition of recombinant human INSR expressed in baculovirus using ATP as substrate after 15 mins by TRF assay

[7] = Dose normalized AUC in CD-1 mouse at 10 mg/kg, po by LC/MS/MS analysis; format: ADME, organism-based; conditions: in vivo
[8] = Dose normalized AUC in cynomolgus monkey at 10 mg/kg, po by LC/MS/MS analysis; format: ADME, organism-based, Macaca fascicularis; conditions: in vivo
[9] = AUC (0 to infinity) in Sprague-Dawley rat at 5 mg/kg, po by LC/MS/MS analysis; format: ADME, organism-based; parameters: dose 5 mg/kg, time infinity, route oral; conditions: in vivo
[10] = target: T1, Insulin receptor; remark: listed apart in the source
Description: Inhibition of INSR (unknown origin) by cell based assay

[11] = target: ALK tyrosine kinase receptor (Homo sapiens, UniProt Q9UM73); assay: Inhibition of NPM-ALK phosphorylation in human SUP-M2 cells after 2 to 3 hrs by ELISA; format: cell-based
Sequence of ALK tyrosine kinase receptor (Q9UM73 19-1620 limits assumed): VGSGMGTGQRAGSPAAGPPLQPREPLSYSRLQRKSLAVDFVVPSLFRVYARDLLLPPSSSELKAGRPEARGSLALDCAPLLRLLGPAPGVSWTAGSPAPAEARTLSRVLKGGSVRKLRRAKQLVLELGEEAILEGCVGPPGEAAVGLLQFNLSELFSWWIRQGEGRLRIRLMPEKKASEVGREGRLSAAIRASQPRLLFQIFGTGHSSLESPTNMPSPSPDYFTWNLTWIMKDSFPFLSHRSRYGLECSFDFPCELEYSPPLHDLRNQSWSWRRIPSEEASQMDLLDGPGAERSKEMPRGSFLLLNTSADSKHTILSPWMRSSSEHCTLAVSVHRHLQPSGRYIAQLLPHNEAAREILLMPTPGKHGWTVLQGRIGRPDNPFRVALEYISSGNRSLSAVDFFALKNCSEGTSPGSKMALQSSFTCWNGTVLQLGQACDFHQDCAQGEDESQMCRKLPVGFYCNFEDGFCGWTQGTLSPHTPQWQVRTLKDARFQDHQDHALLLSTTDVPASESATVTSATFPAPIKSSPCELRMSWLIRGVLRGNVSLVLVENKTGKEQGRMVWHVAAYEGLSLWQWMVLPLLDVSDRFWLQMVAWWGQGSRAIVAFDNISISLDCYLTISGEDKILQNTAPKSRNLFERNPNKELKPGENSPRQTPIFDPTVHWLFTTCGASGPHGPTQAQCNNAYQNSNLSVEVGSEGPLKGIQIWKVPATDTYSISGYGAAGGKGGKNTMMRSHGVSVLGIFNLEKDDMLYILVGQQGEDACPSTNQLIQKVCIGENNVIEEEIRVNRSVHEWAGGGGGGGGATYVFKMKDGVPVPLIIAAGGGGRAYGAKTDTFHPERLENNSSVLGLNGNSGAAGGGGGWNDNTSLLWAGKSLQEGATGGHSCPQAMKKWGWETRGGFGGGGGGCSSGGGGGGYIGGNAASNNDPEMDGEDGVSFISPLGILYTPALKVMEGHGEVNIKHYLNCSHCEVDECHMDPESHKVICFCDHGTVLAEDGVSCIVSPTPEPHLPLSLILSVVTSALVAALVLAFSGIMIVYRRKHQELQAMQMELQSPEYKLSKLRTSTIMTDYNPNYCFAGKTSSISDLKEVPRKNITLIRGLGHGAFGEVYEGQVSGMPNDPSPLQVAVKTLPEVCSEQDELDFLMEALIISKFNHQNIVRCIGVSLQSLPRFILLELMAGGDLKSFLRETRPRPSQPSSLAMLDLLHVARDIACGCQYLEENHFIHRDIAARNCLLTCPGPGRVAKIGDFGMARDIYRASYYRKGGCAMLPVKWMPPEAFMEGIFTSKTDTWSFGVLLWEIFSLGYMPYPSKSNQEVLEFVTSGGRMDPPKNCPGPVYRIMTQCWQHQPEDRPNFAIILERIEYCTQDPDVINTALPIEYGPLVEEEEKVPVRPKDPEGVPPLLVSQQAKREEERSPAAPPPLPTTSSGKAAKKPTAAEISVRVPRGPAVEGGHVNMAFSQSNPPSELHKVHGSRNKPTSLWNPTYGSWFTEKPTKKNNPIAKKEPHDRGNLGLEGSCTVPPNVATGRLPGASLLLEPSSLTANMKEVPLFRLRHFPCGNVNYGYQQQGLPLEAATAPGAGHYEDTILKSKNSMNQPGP

[12] = target: T2, Cytochrome P450 1A2 (Homo sapiens, UniProt P05177); assay: Inhibition of CYP1A2 in human liver microsomes using phenacetin as substrate in presence of NADPH by LC/MS/MS analysis; format: ADME
T2 sequence (P05177 whole entry): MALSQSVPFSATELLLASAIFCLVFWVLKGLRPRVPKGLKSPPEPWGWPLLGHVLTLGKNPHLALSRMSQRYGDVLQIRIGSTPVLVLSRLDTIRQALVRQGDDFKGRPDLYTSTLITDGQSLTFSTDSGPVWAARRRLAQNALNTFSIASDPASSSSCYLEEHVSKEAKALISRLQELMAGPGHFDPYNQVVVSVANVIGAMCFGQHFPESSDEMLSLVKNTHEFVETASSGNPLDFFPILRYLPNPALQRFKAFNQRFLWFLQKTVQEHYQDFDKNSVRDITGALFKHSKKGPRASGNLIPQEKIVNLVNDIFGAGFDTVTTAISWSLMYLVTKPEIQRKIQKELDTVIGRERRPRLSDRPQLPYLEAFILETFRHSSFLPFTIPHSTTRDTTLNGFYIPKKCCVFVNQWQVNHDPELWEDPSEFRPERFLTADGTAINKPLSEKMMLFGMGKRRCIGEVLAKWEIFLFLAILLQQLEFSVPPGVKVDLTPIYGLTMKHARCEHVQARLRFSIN

[13] = Drug metabolism in rat liver microsomes assessed as oxidative/degradative M2 metabolite formation at 10 uM after 120 mins in presence of NADPH by LC/MS/MS analysis; format: ADME; conditions: 2 h
[14] = Half life in cynomolgus monkey liver microsomes by LC/MS/MS analysis; format: ADME, Macaca fascicularis
[15] = Drug metabolism in human liver microsomes assessed as oxidative/degradative M2 metabolite formation at 10 uM after 120 mins in presence of NADPH by LC/MS/MS analysis; format: ADME; conditions: 2 h
[16] = Drug metabolism in human liver microsomes assessed as oxidative/degradative M1 metabolite formation at 10 uM after 120 mins in presence of NADPH by LC/MS/MS analysis; format: ADME; conditions: 2 h
[17] = Drug metabolism in rat liver microsomes assessed as oxidative/degradative M6 metabolite formation at 10 uM after 120 mins in presence of NADPH by LC/MS/MS analysis; format: ADME; conditions: 2 h
[18] = target: Cytochrome P450 2C19 (Homo sapiens, UniProt P33261); assay: Inhibition of CYP2C19 in human liver microsomes using S-mephenytoin as substrate in presence of NADPH by LC/MS/MS analysis; format: ADME
[19] = target: Voltage-gated inwardly rectifying potassium channel KCNH2 (Homo sapiens, UniProt Q12809); assay: Inhibition of human ERG
[20] = Half life in rat liver microsomes by LC/MS/MS analysis; format: ADME
[21] = Drug metabolism in rat liver microsomes assessed as oxidative/degradative M1 metabolite formation at 10 uM after 120 mins in presence of NADPH by LC/MS/MS analysis; format: ADME; conditions: 2 h
[22] = as §1, with “human” for “rat”; format: ADME; conditions: 2 h
[23] = Drug metabolism in human liver microsomes assessed as oxidative/degradative M6 metabolite formation at 10 uM after 120 mins in presence of NADPH by LC/MS/MS analysis; format: ADME; conditions: 2 h
[24] = Dose normalized AUC in Sprague-Dawley rat at 5 mg/kg, po by LC/MS/MS analysis; format: ADME, organism-based; conditions: in vivo
[25] = Half life in CD-1 mouse liver microsomes by LC/MS/MS analysis; format: ADME
[26] = target: Focal adhesion kinase 1 (Homo sapiens, UniProt Q05397); assay: Inhibition of human FAK expressed in baculovirus after 30 mins using biotinyl-amino-hexanoyl-EQEDEPEGDYFEWLE-amide as substrate by TRF assay
Sequence of Focal adhesion kinase 1 (Q05397 whole entry): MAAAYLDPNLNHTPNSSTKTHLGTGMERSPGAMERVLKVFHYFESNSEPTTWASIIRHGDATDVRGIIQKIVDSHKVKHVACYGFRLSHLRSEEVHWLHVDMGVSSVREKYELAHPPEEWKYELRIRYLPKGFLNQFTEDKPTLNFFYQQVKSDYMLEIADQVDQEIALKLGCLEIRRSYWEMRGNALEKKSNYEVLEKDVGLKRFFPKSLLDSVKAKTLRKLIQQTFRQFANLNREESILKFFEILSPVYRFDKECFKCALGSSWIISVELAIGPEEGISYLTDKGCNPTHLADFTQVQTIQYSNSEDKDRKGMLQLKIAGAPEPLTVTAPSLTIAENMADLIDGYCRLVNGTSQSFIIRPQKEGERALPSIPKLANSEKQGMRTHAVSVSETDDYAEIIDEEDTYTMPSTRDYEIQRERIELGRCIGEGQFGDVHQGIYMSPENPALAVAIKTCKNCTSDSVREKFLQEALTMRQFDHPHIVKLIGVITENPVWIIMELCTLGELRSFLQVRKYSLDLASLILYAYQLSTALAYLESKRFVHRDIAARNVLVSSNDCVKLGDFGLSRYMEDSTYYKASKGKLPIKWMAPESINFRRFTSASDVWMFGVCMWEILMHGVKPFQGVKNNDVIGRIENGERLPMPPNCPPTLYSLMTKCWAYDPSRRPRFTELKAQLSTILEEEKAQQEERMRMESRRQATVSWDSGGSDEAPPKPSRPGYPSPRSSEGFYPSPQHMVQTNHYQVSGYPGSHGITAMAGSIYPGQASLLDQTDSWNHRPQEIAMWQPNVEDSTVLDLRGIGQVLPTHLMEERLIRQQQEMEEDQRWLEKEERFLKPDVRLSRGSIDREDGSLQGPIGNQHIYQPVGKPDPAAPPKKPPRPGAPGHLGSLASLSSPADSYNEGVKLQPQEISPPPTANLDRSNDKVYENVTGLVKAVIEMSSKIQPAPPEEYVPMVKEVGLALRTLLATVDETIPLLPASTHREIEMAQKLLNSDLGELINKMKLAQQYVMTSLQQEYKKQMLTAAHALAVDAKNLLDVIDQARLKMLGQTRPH

[27] = target: Cytochrome P450 2C9 (Homo sapiens, UniProt P11712); assay: Inhibition of CYP2C9 in human liver microsomes using diclofenac as substrate in presence of NADPH by LC/MS/MS analysis; format: ADME
Sequence of Cytochrome P450 2C9 (P11712 whole entry): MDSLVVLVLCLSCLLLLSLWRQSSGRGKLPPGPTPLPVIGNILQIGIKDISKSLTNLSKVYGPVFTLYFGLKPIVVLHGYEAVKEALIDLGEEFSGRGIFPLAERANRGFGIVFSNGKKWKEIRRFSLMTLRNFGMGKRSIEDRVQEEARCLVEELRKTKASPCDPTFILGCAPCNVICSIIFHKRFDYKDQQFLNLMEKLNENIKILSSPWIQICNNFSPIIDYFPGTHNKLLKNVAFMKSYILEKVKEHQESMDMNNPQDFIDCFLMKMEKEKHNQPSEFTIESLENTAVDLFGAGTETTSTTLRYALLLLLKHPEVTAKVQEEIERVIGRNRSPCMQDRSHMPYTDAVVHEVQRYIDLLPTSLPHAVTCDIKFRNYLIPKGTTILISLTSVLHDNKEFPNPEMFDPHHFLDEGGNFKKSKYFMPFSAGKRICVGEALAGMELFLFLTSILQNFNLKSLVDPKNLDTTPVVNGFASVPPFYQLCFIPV

With `COc1c(Nc2ncc(Cl)c(N[C@H]3[C@@H](C(N)=O)[C@@H]4C=C[C@H]3C4)n2)ccc2c1CC[C@@H](N1CCOCC1)CC2` the Drug metabolism [1] was “Metabolite_Detected”, the Drug metabolism [2] was “Metabolite_Detected” and the Drug metabolism [3] was “Metabolite_Detected”. It also gave a half-life [4] of 10 to 11 min, an IC50 [5] of over 10 µM and an IC50 [6] of 0.662 to 1.26 µM. For the same compound, the AUC/dose [7] was 299 ng·h/mL, the AUC/dose [8] was 95 ng·h/mL and the AUC(0-inf) [9] was 1200 ng·h/mL. For the same compound, the IC50 [10] was over 10 µM, the IC50 [11] was 0.02 to 0.042 µM and the IC50 [12] was over 10 µM. The Drug metabolism [13] was “Metabolite_Detected”, the half-life [14] was 17 min and the Drug metabolism [15] was “Metabolite_Detected”. For the same compound, the Drug metabolism [16] was “Metabolite_Detected”, the Drug metabolism [17] was “Metabolite_Detected” and the IC50 [18] was over 10 µM. The IC50 [19] was over 10 µM, the half-life [20] was 7 to 16 min and the Drug metabolism [21] was “Metabolite_Detected”. For the same compound, the Drug metabolism [22] was “Metabolite_Detected”, the Drug metabolism [23] was “Metabolite_Detected” and the AUC/dose [24] was 246 ng·h/mL. It also gave a half-life [25] of 8 to 13 min, an IC50 [26] of 0.025 to 0.03 µM and an IC50 [27] of over 10 µM.

Source: ChEMBL document CHEMBL3856231 (J Med Chem, 2016)
